Test results as given in patent publication US12371454B2, “Cyclic peptide compound having Kras inhibitory action” (priority 2019, dated 2025).
Starred links: 1 amine or outer side, 2 acyl side, 3 side chain; linkers in the order of their positions; H or OH if unused. Positions of bridges follow the written chain, without caps; N, C: chain ends. Non-standard residues stand in square brackets, D forms with d. Residues, ends and D or L forms follow the SMILES beside them. *: point of attachment. hPhe(3-Cl-4-CF3) = N[C@@H](CCc1ccc(C(F)(F)F)c(Cl)c1)C(=O)O; 3Oxa8azabicyclo(3.2.1)octane = C1CC2COCC1N2*; NMeAbu(4,4,4-F3) = CN[C@@H](CC(F)(F)F)C(=O)O; NMePhe(3-Cl) = CN[C@@H](Cc1cccc(Cl)c1)C(=O)O; NMePhe(4-Me) = CN[C@@H](Cc1ccc(C)cc1)C(=O)O; NMedβ3hAla = C[C@H](CC(=O)[*:2])N(C)[*:1]; Morpholine(3S-CO) = O=C(O)[C@@H]1COCCN1; dβ3hPip = O=C(C[C@H]1CCCCN1[*:1])[*:2]; NMeAla(cPr) = CN[C@@H](CC1CC1)C(=O)O; NMeGly(cBu) = CN[C@H](C(=O)O)C1CCC1; NMeCha = CN[C@@H](CC1CCCCC1)C(=O)O; NMehLeu = CN[C@@H](CCC(C)C)C(=O)O; Ala(cPr) = N[C@@H](CC1CC1)C(=O)O; NMeChg = CN[C@H](C(=O)O)C1CCCCC1; NMeI = CC[C@H](C)[C@H](NC)C(=O)O; NMeT = CN[C@H](C(=O)O)[C@@H](C)O; NMeD = CN[C@@H](CC(=O)O)C(=O)O; NMeL = CN[C@@H](CC(C)C)C(=O)O; NMeNva = CCC[C@H](NC)C(=O)O; NMeV = CN[C@H](C(=O)O)C(C)C; Trifluoroethyl = FC(F)(F)C*; d(β3hA) = C[C@@H](N)CC(=O)O; NMeS = CN[C@@H](CO)C(=O)O; Morpholide = C1CN(*)CCO1; NMeA = CN[C@@H](C)C(=O)O; Piperidide = C1CCN(*)CC1; Pyrrolidide = C1CCN(*)C1; Ac5c = NC1(C(=O)O)CCCC1; Aze = O=C(O)[C@@H]1CCN1; Ac4c = NC1(C(=O)O)CCC1; Cyclobutyl = C1CC(*)C1; Sar = CNCC(=O)O; Propyl = CCC*

Experiments:
[1] = system: Human pancreatic cancer cell line AsPC-1; assay: Measurement of AsPC-1 cell growth inhibition (AsPC-1 CGI); format: cell-based; conditions: 96 h
Outline: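 AsPC-1 cells in 15% FBS RPMI-1640 were exposed to test compound for 96 hours at 37° C, with CellTiter-Glo as endpoint.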

[2] = biological target: T1, Kras and SOS1 (biotin-tagged human Kras loaded with GDP, His-tagged human SOS1) (Homo sapiens, UniProt P01116, G12D); assay: Protein-protein interaction inhibition between Kras and SOS1 (KrasGl2D-SOS PPI) using AlphaScreen; format: binding; conditions: AlphaScreen; biotin-tagged human Kras loaded with GDP, His-tagged human SOS1; read-out: KRAS G12D-SOS PPI IC50
T1 construct: made in house; host or cells: E. coli (stated for Kras only)
T1 sequence (P01116 1-188 isoform P01116-2 G12D): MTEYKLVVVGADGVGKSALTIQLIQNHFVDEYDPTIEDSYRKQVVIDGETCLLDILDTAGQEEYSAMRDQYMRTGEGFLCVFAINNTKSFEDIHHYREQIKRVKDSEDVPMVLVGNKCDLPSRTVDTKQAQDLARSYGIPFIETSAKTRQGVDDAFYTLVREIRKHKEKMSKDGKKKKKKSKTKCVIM
Outline: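 Donor beads (nickel) hold His-SOS1; acceptor beads (streptavidin) hold biotin-Kras bound to GDP. Signal measured at 520-620 nm following 680 nm excitation.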

Compound	IC50 [1]	IC50 [2]
CC[C@H](C)[C@@H]1NC(=O)[C@H](CC(C)C)N(C)C(=O)C[C@@H](C(=O)N2CCCCC2)N(C)C(=O)[C@H](C2CCCCC2)N(C)C(=O)C2(CCCC2)NC(=O)[C@@H]2COCCN2C(=O)[C@H](CCc2ccc(C(F)(F)F)c(Cl)c2)NC(=O)CN(C)C(=O)[C@H](CC2CCCCC2)N(C)C(=O)CN(C)C(=O)CN(C)C1=O [Compound 662] ([NMeL]I[Sar][Sar][NMeCha][Sar][hPhe(3-Cl-4-CF3)][Morpholine(3S-CO)][Ac5c][NMeChg][NMeD]-Piperidide; lactam N-11)	0.05 to 0.1 µM	0.0032 µM
CC[C@H](C)[C@@H]1NC(=O)[C@H](CC(F)(F)F)N(C)C(=O)C[C@@H](C(=O)N2C3CCC2COC3)N(C)C(=O)[C@H](C2CCCCC2)N(C)C(=O)C2(CCCC2)NC(=O)[C@@H]2CCCN2C(=O)[C@H](CCc2ccc(C(F)(F)F)c(Cl)c2)NC(=O)CN(C)C(=O)[C@H](Cc2ccc(C)cc2)N(C)C(=O)CN(C)C(=O)CN(C)C1=O [Compound 683] ([NMeAbu(4,4,4-F3)]I[Sar][Sar][NMePhe(4-Me)][Sar][hPhe(3-Cl-4-CF3)]P[Ac5c][NMeChg][NMeD]-{3Oxa8azabicyclo(3.2.1)octane}; lactam N-11)	0.05 to 0.1 µM	0.00061 µM
CC(C)C[C@H]1C(=O)N[C@@H](CC2CC2)C(=O)N(C)CC(=O)N(C)CC(=O)N(C)[C@@H](CC2CCCCC2)C(=O)N(C)CC(=O)N[C@@H](CCc2ccc(C(F)(F)F)c(Cl)c2)C(=O)N2CCC[C@H]2C(=O)NC2(CCCC2)C(=O)N(C)[C@@H](C2CCCCC2)C(=O)N(C)[C@H](C(=O)N2CCCCC2)CC(=O)N1C [Compound 689] ([NMeL][Ala(cPr)][Sar][Sar][NMeCha][Sar][hPhe(3-Cl-4-CF3)]P[Ac5c][NMeChg][NMeD]-Piperidide; lactam N-11)	0.1 to 0.5 µM	0.0021 µM
CC[C@H](C)[C@@H]1NC(=O)[C@H](COC2CCC2)N(C)C(=O)C[C@@H](C(=O)N2CCCCC2)N(C)C(=O)[C@H](C2CCCCC2)N(C)C(=O)C2(CCCC2)NC(=O)[C@@H]2CCCN2C(=O)[C@H](CCc2ccc(C(F)(F)F)c(Cl)c2)NC(=O)CN(C)C(=O)[C@H](CC2CCCCC2)N(C)C(=O)CN(C)C(=O)CN(C)C1=O [Compound 699] ([NMeS](Cyclobutyl)I[Sar][Sar][NMeCha][Sar][hPhe(3-Cl-4-CF3)]P[Ac5c][NMeChg][NMeD]-Piperidide; lactam N-11)	0.05 to 0.1 µM	0.00083 µM
CC[C@H](C)[C@@H]1NC(=O)[C@H](C2CCC2)N(C)C(=O)C[C@@H](C(=O)N2C3CCC2COC3)N(C)C(=O)[C@H](C2CCCCC2)N(C)C(=O)C2(CCCC2)NC(=O)[C@@H]2CCCN2C(=O)[C@H](CCc2ccc(C(F)(F)F)c(Cl)c2)NC(=O)CN(C)C(=O)[C@H](CC2CCCCC2)N(C)C(=O)CN(C)C(=O)CN(C)C1=O [Compound 701] ([NMeGly(cBu)]I[Sar][Sar][NMeCha][Sar][hPhe(3-Cl-4-CF3)]P[Ac5c][NMeChg][NMeD]-{3Oxa8azabicyclo(3.2.1)octane}; lactam N-11)	0.05 to 0.1 µM	0.00069 µM
CC[C@H](C)[C@@H]1NC(=O)[C@H](CC(C)C)N(C)C(=O)C[C@@H](C)NC(=O)[C@H]([C@@H](C)CC)N(C)C(=O)C2(CCCC2)NC(=O)[C@@H]2CCCN2C(=O)[C@H](CCc2ccc(C(F)(F)F)c(Cl)c2)NC(=O)CN(C)C(=O)[C@H](CC2CCCCC2)N(C)C(=O)CN(C)C(=O)CN(C)C1=O [Compound 708] (cyclo([Ac5c][NMeI][d(β3hA)][NMeL]I[Sar][Sar][NMeCha][Sar][hPhe(3-Cl-4-CF3)]P))	0.05 to 0.1 µM	0.011 µM
CC[C@H](C)[C@@H]1NC(=O)[C@H](CC(C)C)N(C)C(=O)C[C@@H](C(=O)N2CCCCC2)N(C)C(=O)[C@H](C(C)C)N(C)C(=O)C2(CCC2)NC(=O)[C@@H]2CCCN2C(=O)[C@H](CCc2ccc(C(F)(F)F)c(Cl)c2)NC(=O)CN(C)C(=O)[C@H](CC2CCCCC2)N(C)C(=O)CN(C)C(=O)CN(C)C1=O [Compound 712] ([NMeL]I[Sar][Sar][NMeCha][Sar][hPhe(3-Cl-4-CF3)]P[Ac4c][NMeV][NMeD]-Piperidide; lactam N-11)	0.05 to 0.1 µM	0.0027 µM
CC[C@H](C)[C@@H]1NC(=O)[C@H](C)N(C)C(=O)C[C@@H](C)N(C)C(=O)[C@H](C(C)C)N(C)C(=O)C2(CCCC2)NC(=O)[C@@H]2CCCN2C(=O)[C@H](CCc2ccc(C(F)(F)F)c(Cl)c2)NC(=O)CN(C)C(=O)[C@H](CC2CCCCC2)N(C)C(=O)CN(C)C(=O)CN(C)C1=O [Compound 714] (cyclo([Ac5c][NMeV][NMedβ3hAla][NMeA]I[Sar][Sar][NMeCha][Sar][hPhe(3-Cl-4-CF3)]P))	0.1 to 0.5 µM	0.0023 µM
CC[C@H](C)[C@@H]1NC(=O)[C@H](CC(C)C)N(C)C(=O)C[C@@H](C(=O)N2CCCCC2)N(C)C(=O)[C@H](C2CCCCC2)N(C)C(=O)C2(CCCC2)NC(=O)[C@@H]2CCCN2C(=O)[C@H](CCc2ccc(C(F)(F)F)c(Cl)c2)NC(=O)CN(C)C(=O)[C@H](COCC(F)(F)F)N(C)C(=O)CN(C)C(=O)CN(C)C1=O [Compound 732] ([NMeL]I[Sar][Sar][NMeS](Trifluoroethyl)[Sar][hPhe(3-Cl-4-CF3)]P[Ac5c][NMeChg][NMeD]-Piperidide; lactam N-11)	0.1 to 0.5 µM	0.0014 µM
CCCOC[C@H]1C(=O)N(C)CC(=O)N[C@@H](CCc2ccc(C(F)(F)F)c(Cl)c2)C(=O)N2CCC[C@H]2C(=O)NC2(CCCC2)C(=O)N(C)[C@@H](C2CCCCC2)C(=O)N(C)[C@H](C(=O)N2CCCC2)CC(=O)N(C)[C@@H](CC(F)(F)F)C(=O)N[C@@H]([C@@H](C)CC)C(=O)N(C)CC(=O)N(C)CC(=O)N1C [Compound 735] ([NMeAbu(4,4,4-F3)]I[Sar][Sar][NMeS](Propyl)[Sar][hPhe(3-Cl-4-CF3)]P[Ac5c][NMeChg][NMeD]-Pyrrolidide; lactam N-11)	0.05 to 0.1 µM	0.00044 µM
CC[C@H](C)[C@@H]1NC(=O)[C@H](CC(C)C)N(C)C(=O)C[C@H]2CCCCN2C(=O)[C@H](C(C)C)N(C)C(=O)C2(CCCC2)NC(=O)[C@@H]2CCCN2C(=O)[C@H](CCc2ccc(C(F)(F)F)c(Cl)c2)NC(=O)CN(C)C(=O)[C@H](CC2CCCCC2)N(C)C(=O)CN(C)C(=O)CN(C)C1=O [Compound 747] (cyclo([Ac5c][NMeV][dβ3hPip][NMeL]I[Sar][Sar][NMeCha][Sar][hPhe(3-Cl-4-CF3)]P))	0.1 to 0.5 µM	0.011 µM
CC[C@H](C)[C@@H]1NC(=O)[C@H]([C@@H](C)O)N(C)C(=O)C[C@@H](C(=O)N2CCCCC2)N(C)C(=O)[C@H](C2CCCCC2)N(C)C(=O)C2(CCCC2)NC(=O)[C@@H]2CCCN2C(=O)[C@H](CCc2ccc(C(F)(F)F)c(Cl)c2)NC(=O)CN(C)C(=O)[C@H](CC2CCCCC2)N(C)C(=O)CN(C)C(=O)CN(C)C1=O [Compound 756] ([NMeT]I[Sar][Sar][NMeCha][Sar][hPhe(3-Cl-4-CF3)]P[Ac5c][NMeChg][NMeD]-Piperidide; lactam N-11)	0.1 to 0.5 µM	0.00058 µM
CC[C@H](C)[C@@H]1NC(=O)[C@H](CC(C)C)N(C)C(=O)C[C@@H](C(=O)N2CCCCC2)N(C)C(=O)[C@H](CCC(C)C)N(C)C(=O)C2(CCCC2)NC(=O)[C@@H]2CCCN2C(=O)[C@H](CCc2ccc(C(F)(F)F)c(Cl)c2)NC(=O)CN(C)C(=O)[C@H](CC2CCCCC2)N(C)C(=O)CN(C)C(=O)CN(C)C1=O [Compound 762] ([NMeL]I[Sar][Sar][NMeCha][Sar][hPhe(3-Cl-4-CF3)]P[Ac5c][NMehLeu][NMeD]-Piperidide; lactam N-11)	0.1 to 0.5 µM	0.0055 µM
CC[C@H](C)[C@@H]1NC(=O)[C@H](CC(F)(F)F)N(C)C(=O)C[C@@H](C(=O)N2CCOCC2)N(C)C(=O)[C@H](C2CCCCC2)N(C)C(=O)C2(CCCC2)NC(=O)[C@@H]2CCCN2C(=O)[C@H](CCc2ccc(C(F)(F)F)c(Cl)c2)NC(=O)CN(C)C(=O)[C@H](CC2CCCCC2)N(C)C(=O)CN(C)C(=O)CN(C)C1=O [Compound 774] ([NMeAbu(4,4,4-F3)]I[Sar][Sar][NMeCha][Sar][hPhe(3-Cl-4-CF3)]P[Ac5c][NMeChg][NMeD]-Morpholide; lactam N-11)	0.02 to 0.05 µM	0.00055 µM
CCC[C@H]1C(=O)N[C@@H]([C@@H](C)CC)C(=O)N(C)CC(=O)N(C)CC(=O)N(C)[C@@H](CC2CCCCC2)C(=O)N(C)CC(=O)N[C@@H](CCc2ccc(C(F)(F)F)c(Cl)c2)C(=O)N2CCC[C@H]2C(=O)NC2(CCCC2)C(=O)N(C)[C@@H](C2CCCCC2)C(=O)N(C)[C@H](C(=O)N2CCCCC2)CC(=O)N1C [Compound 778] ([NMeNva]I[Sar][Sar][NMeCha][Sar][hPhe(3-Cl-4-CF3)]P[Ac5c][NMeChg][NMeD]-Piperidide; lactam N-11)	0.02 to 0.05 µM	0.0007 µM
CC[C@H](C)[C@@H]1NC(=O)[C@H](CC(C)C)N(C)C(=O)C[C@@H](C(=O)N(C)C)N(C)C(=O)[C@H]([C@@H](C)CC)N(C)C(=O)C2(CCCC2)NC(=O)[C@H](Cc2cccc(Cl)c2)N(C)C(=O)[C@H](CCc2ccc(C(F)(F)F)c(Cl)c2)NC(=O)CN(C)C(=O)[C@H](Cc2ccc(C)cc2)N(C)C(=O)[C@@H]2CCN2C(=O)[C@H](C)N(C)C1=O [Compound 783] ([NMeL]I[NMeA][Aze][NMePhe(4-Me)][Sar][hPhe(3-Cl-4-CF3)][NMePhe(3-Cl)][Ac5c][NMeI][NMeD]-NMe2; lactam N-11)	0.05 to 0.1 µM	0.0098 µM
CC[C@H](C)[C@@H]1NC(=O)[C@H](CC(C)C)N(C)C(=O)C[C@@H](C(=O)N2CCCCC2)N(C)C(=O)[C@H](CC2CC2)N(C)C(=O)C2(CCCC2)NC(=O)[C@@H]2CCCN2C(=O)[C@H](CCc2ccc(C(F)(F)F)c(Cl)c2)NC(=O)CN(C)C(=O)[C@H](CC2CCCCC2)N(C)C(=O)CN(C)C(=O)CN(C)C1=O [Compound 787] ([NMeL]I[Sar][Sar][NMeCha][Sar][hPhe(3-Cl-4-CF3)]P[Ac5c][NMeAla(cPr)][NMeD]-Piperidide; lactam N-11)	0.1 to 0.5 µM	0.0029 µM
